Blank lines part the entries; values can stand above or below the compound they belong to. Activity calls are given as the source filed them.
Key:
[1] = biological target: T1, Mannose-6-phosphate isomerase (Homo sapiens, UniProt P34949); experiment: inhibitors of human PMI, primary screen, biochemical, fluorescence intensity, coupled assay (AID 1209)
T1 sequence (P34949 whole entry): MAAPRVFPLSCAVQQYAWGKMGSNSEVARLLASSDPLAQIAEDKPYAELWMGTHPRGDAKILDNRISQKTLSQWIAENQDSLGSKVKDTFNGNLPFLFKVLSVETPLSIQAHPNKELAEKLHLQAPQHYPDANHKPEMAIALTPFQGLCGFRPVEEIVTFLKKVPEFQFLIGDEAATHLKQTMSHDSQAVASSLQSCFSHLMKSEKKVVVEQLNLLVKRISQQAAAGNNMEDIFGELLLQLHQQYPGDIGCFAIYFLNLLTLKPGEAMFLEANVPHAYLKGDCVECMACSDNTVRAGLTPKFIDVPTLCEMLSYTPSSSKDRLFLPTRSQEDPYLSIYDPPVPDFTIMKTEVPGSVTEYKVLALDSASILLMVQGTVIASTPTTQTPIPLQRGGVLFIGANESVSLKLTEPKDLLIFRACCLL

[2] = biological target: T2, Apoptotic protease-activating factor 1 (Homo sapiens, UniProt O14727); assay type: functional
T2 sequence (O14727 whole entry): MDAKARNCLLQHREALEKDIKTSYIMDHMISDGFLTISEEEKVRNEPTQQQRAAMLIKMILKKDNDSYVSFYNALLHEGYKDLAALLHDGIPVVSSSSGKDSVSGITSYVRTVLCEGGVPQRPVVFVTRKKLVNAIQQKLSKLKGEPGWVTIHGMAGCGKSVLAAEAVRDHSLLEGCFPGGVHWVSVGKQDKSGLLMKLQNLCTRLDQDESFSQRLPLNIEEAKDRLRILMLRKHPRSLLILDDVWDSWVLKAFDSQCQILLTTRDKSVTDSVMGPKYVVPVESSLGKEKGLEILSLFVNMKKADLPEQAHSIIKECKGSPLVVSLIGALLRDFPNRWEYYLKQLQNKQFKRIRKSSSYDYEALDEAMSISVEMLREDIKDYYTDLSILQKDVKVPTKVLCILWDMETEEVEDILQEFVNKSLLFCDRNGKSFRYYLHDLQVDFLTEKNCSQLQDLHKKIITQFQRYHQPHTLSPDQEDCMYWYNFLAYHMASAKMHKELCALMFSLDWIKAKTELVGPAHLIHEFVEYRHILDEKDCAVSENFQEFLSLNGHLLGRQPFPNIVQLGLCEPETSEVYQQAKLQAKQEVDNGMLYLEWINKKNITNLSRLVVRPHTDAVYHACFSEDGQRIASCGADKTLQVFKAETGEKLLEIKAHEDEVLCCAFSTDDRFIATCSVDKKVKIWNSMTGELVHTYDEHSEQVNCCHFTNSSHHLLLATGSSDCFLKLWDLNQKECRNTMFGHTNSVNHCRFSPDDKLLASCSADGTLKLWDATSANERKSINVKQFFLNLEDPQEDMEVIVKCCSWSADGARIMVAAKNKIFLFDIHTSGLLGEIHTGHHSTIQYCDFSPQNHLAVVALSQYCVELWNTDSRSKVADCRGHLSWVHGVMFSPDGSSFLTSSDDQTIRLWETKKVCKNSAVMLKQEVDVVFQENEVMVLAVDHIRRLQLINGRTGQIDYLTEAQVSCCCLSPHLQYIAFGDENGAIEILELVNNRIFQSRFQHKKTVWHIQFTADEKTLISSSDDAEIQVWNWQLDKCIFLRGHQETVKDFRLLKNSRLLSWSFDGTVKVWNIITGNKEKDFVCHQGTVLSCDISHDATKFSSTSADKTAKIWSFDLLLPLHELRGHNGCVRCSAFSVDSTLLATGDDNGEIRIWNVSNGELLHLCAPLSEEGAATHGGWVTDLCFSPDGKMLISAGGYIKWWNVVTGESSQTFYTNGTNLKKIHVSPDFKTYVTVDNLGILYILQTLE

[3] = biological target: Serine/threonine-protein kinase TBK1 (Homo sapiens, UniProt Q9UHD2); experiment: Navigating the Kinome. Panel member name: TBK1; assay type: functional
[4] = biological target: Hepatocyte growth factor receptor (Homo sapiens, UniProt P08581); assay type: functional;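 further: kinase panel profiling across the kinome, with MET as the panel member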
[5] = biological target: Leucine-rich repeat serine/threonine-protein kinase 2 (Homo sapiens, UniProt Q5S007); assay type: functional;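 further: value from a broad kinome-wide panel profiling study in which LRRK2 was one of the kinases tested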
[6] = biological target: Dual specificity protein kinase CLK4 (Homo sapiens, UniProt Q9HAZ1); assay type: functional
[7] = biological target: Dual specificity mitogen-activated protein kinase kinase 2 (Homo sapiens, UniProt P36507); experiment: Navigating the Kinome. Panel member name: MAP2K2; assay type: functional
[8] = biological target: Phosphorylase b kinase gamma catalytic chain, liver/testis isoform (Homo sapiens, UniProt P15735); assay type: functional;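 further: PHKG2 measured as one member of a kinome-wide kinase panel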
[9] = biological target: Serine/threonine-protein kinase Chk2 (Homo sapiens, UniProt O96017); assay type: functional;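 further: CHEK2 entry within a kinome-wide screening panel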
[10] = biological target: Cyclin-dependent kinase 2 (Homo sapiens, UniProt P24941); assay type: functional;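 further: CDK2 measured as one member of a broad kinome profiling panel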
[11] = biological target: MAP kinase-activated protein kinase 2 (Homo sapiens, UniProt P49137); assay type: functional;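 further: measured as one member of a kinome-wide kinase panel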
[12] = biological target: Calcium/calmodulin-dependent protein kinase type II subunit delta (Homo sapiens, UniProt Q13557); assay type: functional
[13] = biological target: Tyrosine-protein kinase Srms (Homo sapiens, UniProt Q9H3Y6); assay type: functional;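 further: SRMS measured as one member of a kinome-wide kinase profiling panel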
[14] = biological target: Dual specificity tyrosine-phosphorylation-regulated kinase 3 (Homo sapiens, UniProt O43781); assay type: functional;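 further: measured as one member of a broad kinase panel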
[15] = biological target: Receptor tyrosine-protein kinase erbB-2 (Homo sapiens, UniProt P04626); experiment: Navigating the Kinome. Panel member name: ERBB2; assay type: functional
[16] = biological target: Calcium/calmodulin-dependent protein kinase type II subunit beta (Homo sapiens, UniProt Q13554); assay type: functional
[17] = biological target: Maternal embryonic leucine zipper kinase (Homo sapiens, UniProt Q14680); assay type: functional
[18] = biological target: Mitogen-activated protein kinase kinase kinase kinase 5 (Homo sapiens, UniProt Q9Y4K4); assay type: functional;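 further: measured as one member of a kinome-spanning kinase panel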

Leucine-rich repeat serine/threonine-protein kinase 2, sequence (Q5S007 whole entry): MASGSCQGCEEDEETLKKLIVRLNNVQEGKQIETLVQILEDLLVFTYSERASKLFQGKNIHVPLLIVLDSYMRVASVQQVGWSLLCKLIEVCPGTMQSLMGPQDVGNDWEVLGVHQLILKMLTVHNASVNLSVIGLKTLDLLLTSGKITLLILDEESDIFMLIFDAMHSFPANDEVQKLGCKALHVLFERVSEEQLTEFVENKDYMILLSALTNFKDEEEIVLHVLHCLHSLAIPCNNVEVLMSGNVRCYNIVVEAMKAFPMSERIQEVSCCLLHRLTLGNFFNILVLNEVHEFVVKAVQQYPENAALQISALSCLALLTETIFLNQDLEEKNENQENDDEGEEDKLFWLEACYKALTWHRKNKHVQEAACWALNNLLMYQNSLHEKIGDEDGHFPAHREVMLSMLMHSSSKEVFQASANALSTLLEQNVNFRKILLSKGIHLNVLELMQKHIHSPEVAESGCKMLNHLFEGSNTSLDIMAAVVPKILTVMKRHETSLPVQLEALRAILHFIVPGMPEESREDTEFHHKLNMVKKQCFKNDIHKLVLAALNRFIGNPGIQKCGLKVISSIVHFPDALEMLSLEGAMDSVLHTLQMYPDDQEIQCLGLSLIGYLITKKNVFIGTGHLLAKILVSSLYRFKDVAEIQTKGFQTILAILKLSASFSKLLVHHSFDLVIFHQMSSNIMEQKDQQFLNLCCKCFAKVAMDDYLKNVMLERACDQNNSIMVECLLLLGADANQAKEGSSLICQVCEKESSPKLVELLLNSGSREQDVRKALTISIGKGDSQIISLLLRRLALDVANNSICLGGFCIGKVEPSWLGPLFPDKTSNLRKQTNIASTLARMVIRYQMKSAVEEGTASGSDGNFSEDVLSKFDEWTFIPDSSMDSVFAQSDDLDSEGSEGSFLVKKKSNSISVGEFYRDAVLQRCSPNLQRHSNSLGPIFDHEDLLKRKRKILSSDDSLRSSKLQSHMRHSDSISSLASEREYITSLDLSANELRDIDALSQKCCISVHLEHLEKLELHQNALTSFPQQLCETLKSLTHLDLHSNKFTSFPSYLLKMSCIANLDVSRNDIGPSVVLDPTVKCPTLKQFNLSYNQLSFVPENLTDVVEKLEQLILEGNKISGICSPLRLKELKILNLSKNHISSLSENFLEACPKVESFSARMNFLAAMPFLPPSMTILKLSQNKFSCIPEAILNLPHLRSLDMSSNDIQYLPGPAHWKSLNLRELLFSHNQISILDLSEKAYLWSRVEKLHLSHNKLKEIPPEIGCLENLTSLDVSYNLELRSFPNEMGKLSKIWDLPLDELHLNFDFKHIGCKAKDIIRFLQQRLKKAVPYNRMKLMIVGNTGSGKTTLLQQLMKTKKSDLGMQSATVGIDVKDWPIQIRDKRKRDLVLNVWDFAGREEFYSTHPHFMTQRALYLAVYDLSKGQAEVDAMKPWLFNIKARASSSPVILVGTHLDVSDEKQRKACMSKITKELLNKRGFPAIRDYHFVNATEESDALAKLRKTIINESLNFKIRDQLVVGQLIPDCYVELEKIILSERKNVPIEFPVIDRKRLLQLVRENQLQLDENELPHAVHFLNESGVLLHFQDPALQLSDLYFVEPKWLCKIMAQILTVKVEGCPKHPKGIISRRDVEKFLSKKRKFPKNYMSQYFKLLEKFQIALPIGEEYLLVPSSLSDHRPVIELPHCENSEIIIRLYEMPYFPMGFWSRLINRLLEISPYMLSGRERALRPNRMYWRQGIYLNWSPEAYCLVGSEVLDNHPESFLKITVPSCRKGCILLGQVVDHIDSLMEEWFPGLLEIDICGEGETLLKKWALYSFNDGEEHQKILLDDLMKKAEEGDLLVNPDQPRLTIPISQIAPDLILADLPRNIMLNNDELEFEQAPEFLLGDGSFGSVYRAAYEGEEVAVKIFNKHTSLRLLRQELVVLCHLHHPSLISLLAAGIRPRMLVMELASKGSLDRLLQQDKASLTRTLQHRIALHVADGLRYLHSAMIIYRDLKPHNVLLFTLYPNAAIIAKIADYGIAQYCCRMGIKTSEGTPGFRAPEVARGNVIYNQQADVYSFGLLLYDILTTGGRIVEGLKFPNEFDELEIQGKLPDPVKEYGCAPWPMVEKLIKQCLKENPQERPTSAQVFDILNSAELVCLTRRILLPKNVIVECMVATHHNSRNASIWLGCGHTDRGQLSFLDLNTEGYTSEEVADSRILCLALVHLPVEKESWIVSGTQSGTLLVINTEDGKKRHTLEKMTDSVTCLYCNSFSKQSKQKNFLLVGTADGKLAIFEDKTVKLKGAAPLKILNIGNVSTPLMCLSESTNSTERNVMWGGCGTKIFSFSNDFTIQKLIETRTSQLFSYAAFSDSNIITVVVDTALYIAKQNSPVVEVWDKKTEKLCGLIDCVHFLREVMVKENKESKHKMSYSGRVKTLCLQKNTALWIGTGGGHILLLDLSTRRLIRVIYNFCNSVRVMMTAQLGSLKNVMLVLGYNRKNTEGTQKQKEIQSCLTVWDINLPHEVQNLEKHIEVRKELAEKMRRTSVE
MAP kinase-activated protein kinase 2, sequence (P49137 whole entry): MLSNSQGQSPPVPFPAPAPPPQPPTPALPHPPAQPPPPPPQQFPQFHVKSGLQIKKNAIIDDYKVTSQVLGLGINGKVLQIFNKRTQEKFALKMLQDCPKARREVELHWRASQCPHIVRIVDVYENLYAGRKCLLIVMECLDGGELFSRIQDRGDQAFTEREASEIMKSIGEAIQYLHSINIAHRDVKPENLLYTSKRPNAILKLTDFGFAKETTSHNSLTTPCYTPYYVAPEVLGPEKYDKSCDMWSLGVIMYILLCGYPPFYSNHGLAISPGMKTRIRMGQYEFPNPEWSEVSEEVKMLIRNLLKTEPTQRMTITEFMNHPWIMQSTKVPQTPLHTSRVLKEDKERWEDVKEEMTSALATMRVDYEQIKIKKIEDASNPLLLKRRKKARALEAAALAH
Hepatocyte growth factor receptor, sequence (P08581 whole entry): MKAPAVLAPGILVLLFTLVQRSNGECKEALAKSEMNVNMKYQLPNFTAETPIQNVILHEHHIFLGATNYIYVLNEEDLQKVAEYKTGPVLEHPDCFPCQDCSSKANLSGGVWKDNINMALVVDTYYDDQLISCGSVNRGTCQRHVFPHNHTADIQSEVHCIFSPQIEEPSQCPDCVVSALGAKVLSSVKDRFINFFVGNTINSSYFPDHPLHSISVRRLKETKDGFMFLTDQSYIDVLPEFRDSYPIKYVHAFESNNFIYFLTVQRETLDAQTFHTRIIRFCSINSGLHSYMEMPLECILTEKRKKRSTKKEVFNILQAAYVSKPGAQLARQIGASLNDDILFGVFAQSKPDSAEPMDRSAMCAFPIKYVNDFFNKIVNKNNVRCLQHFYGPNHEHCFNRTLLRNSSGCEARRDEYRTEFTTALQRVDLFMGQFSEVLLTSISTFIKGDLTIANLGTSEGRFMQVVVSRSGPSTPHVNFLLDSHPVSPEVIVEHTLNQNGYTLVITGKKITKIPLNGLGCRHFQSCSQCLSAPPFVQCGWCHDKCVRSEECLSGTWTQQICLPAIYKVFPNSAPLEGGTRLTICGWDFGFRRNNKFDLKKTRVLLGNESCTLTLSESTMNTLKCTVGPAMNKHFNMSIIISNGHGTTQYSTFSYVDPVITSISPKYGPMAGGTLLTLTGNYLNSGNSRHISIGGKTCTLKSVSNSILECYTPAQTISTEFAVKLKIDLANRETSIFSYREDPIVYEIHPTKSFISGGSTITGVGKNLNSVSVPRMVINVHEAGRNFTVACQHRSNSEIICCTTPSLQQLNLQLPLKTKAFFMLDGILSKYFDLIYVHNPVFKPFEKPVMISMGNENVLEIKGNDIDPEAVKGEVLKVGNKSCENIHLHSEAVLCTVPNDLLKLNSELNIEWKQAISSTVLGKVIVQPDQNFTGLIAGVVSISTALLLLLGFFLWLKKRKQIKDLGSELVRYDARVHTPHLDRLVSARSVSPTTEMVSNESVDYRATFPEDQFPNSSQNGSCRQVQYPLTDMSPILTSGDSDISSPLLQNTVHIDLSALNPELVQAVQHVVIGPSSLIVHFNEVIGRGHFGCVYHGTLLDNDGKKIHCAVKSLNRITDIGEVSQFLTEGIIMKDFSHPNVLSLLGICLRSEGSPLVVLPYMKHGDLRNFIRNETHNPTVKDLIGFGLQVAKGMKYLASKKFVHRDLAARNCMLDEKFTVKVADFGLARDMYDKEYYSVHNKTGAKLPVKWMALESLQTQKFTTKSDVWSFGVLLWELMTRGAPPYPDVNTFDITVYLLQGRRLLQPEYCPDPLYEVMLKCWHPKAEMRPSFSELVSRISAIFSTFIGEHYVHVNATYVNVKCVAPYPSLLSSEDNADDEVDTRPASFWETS
Calcium/calmodulin-dependent protein kinase type II subunit delta, sequence (Q13557 whole entry): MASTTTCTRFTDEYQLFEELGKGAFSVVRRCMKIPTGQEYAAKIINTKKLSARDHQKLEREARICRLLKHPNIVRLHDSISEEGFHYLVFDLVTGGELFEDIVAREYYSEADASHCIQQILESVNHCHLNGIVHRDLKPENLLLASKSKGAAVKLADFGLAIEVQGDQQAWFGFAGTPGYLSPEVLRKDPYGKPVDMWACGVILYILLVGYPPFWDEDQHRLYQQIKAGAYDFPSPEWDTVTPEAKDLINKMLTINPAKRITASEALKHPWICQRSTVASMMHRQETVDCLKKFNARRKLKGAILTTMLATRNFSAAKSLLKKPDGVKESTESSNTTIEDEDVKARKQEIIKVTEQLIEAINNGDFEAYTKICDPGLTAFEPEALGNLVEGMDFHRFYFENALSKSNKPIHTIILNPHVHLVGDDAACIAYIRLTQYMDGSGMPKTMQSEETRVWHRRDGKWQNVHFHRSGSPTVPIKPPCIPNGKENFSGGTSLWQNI

- IC50 [1]: > 50 µM (not active)
- IC50 [2]: 12.6 µM (active)
Compound: COc1ccc(-n2c(NC(=O)c3ccco3)c(C#N)c3nc4ccccc4nc32)cc1

- Ki [3]: > 3.16 µM (inactive)
- Ki [4]: > 2.51 µM (inactive)
- Ki [5]: > 2.51 µM (inactive)
- Ki [6]: > 2.51 µM (inactive)
- Ki [7]: > 3.98 µM (inactive)
Compound: [2H]C([2H])([2H])Oc1cccc(C(C)NC(=O)c2sc(-c3ccncc3)nc2C)c1 (stereo not drawn)

- Ki [8]: 1 µM (active)
- Ki [9]: 0.398 µM (active)
- Ki [10]: 0.0251 µM (active)
- Ki [11]: 3.98 µM (active)
- Ki [12]: 0.0126 µM (active)
- Ki [13]: > 1.58 µM (inactive)
- Ki [14]: 0.01 µM (active)
- Ki [15]: > 1.58 µM (inactive)
- Ki [16]: 0.251 µM (active)
- Ki [17]: 0.2 µM (active)
- Ki [18]: 0.158 µM (active)
Compound: Cc1n[nH]c2ccc(-c3cncc(OCC(N)Cc4ccc(Cl)c(Cl)c4)c3)cc12 (stereo not drawn)
